# Assay results from ChEMBL document CHEMBL4196212, “Targeting Cytochrome P450 (CYP) 1B1 Enzyme with Four Series of A-Ring Substituted Estrane Derivatives: Design, Synthesis, Inhibitory Activity, and Selectivity” (J Med Chem, 2018).
# Key:
# [1] = molecular target: T1, CYP1B1 (Homo sapiens, UniProt Q16678); experiment: Inhibition of recombinant human CYP1B1 at 0.3 uM incubated for 45 mins using 7-ethyl-O-resorufin substrate in presence of NADPH regenerating system by fluorescence based ethoxyresorufin-O-deethylase assay; details: recombinant human CYP1B1, probe 7-ethyl-O-resorufin (7-ethoxyresorufin)
# T1 sequence (Q16678 whole entry): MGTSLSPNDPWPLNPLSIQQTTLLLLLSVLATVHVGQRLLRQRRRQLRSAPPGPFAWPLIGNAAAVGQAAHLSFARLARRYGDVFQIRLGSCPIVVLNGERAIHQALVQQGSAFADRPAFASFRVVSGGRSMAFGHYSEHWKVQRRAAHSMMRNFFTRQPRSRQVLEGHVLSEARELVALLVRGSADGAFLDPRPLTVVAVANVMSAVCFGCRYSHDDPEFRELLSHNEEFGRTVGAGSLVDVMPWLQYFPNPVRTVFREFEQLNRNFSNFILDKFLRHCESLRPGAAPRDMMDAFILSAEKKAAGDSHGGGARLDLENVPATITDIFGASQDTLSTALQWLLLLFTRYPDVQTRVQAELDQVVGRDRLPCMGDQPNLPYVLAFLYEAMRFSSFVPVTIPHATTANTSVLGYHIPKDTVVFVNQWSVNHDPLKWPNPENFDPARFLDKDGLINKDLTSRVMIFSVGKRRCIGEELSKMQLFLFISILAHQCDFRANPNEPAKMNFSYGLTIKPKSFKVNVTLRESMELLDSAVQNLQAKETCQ
# [2] = molecular target: T1, CYP1B1; experiment: Inhibition of recombinant human CYP1B1 at 3 uM incubated for 45 mins using 7-ethyl-O-resorufin substrate in presence of NADPH regenerating system by fluorescence based ethoxyresorufin-O-deethylase assay; details: recombinant human CYP1B1, probe 7-ethyl-O-resorufin (7-ethoxyresorufin)
# [3] = molecular target: T2, CYP1A1 (Homo sapiens, UniProt P04798); experiment: Inhibition of recombinant human CYP1A1 at 0.3 uM incubated for 25 mins using 7-ethyl-O-resorufin substrate in presence of NADPH regenerating system by fluorescence based ethoxyresorufin-O-deethylase assay; type: ADME; details: recombinant human CYP1A1, probe 7-ethyl-O-resorufin (7-ethoxyresorufin)
# T2 sequence (P04798 whole entry): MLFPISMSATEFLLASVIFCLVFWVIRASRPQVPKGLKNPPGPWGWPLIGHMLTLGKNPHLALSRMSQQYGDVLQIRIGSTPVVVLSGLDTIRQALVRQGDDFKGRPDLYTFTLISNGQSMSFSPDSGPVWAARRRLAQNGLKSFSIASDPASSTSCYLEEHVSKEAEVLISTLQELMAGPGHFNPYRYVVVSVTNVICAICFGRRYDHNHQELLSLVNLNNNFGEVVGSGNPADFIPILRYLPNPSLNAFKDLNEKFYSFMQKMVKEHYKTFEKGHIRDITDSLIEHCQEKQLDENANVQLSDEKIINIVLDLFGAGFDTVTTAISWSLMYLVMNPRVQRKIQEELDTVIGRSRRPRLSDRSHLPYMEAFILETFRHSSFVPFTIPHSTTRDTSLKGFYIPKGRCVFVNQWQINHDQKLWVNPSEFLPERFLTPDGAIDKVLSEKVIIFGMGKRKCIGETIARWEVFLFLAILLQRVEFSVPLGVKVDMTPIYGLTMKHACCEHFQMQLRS
# [4] = molecular target: T2, CYP1A1; experiment: Inhibition of recombinant human CYP1A1 at 3 uM incubated for 25 mins using 7-ethyl-O-resorufin substrate in presence of NADPH regenerating system by fluorescence based ethoxyresorufin-O-deethylase assay; type: ADME; details: recombinant human CYP1A1, probe 7-ethyl-O-resorufin (7-ethoxyresorufin)
# [5] = molecular target: T3, Cytochrome P450 1A1 (Homo sapiens, UniProt P04798); experiment: Inhibition of recombinant human CYP1A1 incubated for 25 mins using 7-ethyl-O-resorufin substrate in presence of NADPH regenerating system by fluorescence based ethoxyresorufin-O-deethylase assay; type: ADME
# T3 sequence (P04798 whole entry): T2 sequence (P04798 whole entry)
# [6] = molecular target: T4, Cytochrome P450 1B1 (Homo sapiens, UniProt Q16678); experiment: Inhibition of recombinant human CYP1B1 incubated for 45 mins using 7-ethyl-O-resorufin substrate in presence of NADPH regenerating system by fluorescence based ethoxyresorufin-O-deethylase assay
# T4 sequence (Q16678 whole entry): T1 sequence (Q16678 whole entry)
# [7] = species on record: Homo sapiens; experiment: Selectivity index, ratio of IC50 for inhibition of recombinant human CYP1A1 to IC50 for inhibition of recombinant human CYP1B1
"inhibition at 0.75 h, 0.3 µM [1] [%]","inhibition at 0.75 h, 3 µM [2] [%]","inhibition at 25 min, 0.3 µM [3] [%]","inhibition at 25 min, 3 µM [4] [%]",SMILES,IC50 [5] [nM],IC50 [6] [nM],Ratio IC50 [7]
11,20,1,5,COc1ccc(-c2cc3c(cc2OC)CC[C@@H]2[C@@H]3CC[C@]3(C)[C@@H](OC)CC[C@@H]23)cc1,–,–,–
38,79,1,4,COc1ccc(-c2cc3c(cc2OC)CC[C@@H]2[C@@H]3CC[C@]3(C)C(=O)CC[C@@H]23)cc1,–,–,–
19,30,–,–,C[C@]12CC[C@@H]3c4cc(-c5ccc(O)cc5)c(O)cc4CC[C@H]3[C@@H]1CCC2=O,–,–,–
97,100,14,51,COc1ccc(-c2cc3c(cc2O)CC[C@@H]2[C@@H]3CC[C@]3(C)[C@@H](O)CC[C@@H]23)cc1,–,–,–
0,5,–,–,C[C@]12CC[C@@H]3c4ccc(S(C)(=O)=O)cc4CC[C@H]3[C@@H]1CC[C@@H]2O,–,–,–
67,101,3,23,C[C@]12CC[C@@H]3c4cc(-c5cccc(F)c5)c(O)cc4CC[C@H]3[C@@H]1CCC2=O,–,–,–
–,55,–,–,C[C@]12CC[C@@H]3c4cc(-c5ccncc5)c(O)cc4CC[C@H]3[C@@H]1CCC2=O,–,–,–
95,103,8,18,COc1ccc(-c2cc3c(cc2O)CC[C@@H]2[C@@H]3CC[C@]3(C)C(=O)CC[C@@H]23)cc1,–,–,–
96,100,10,57,C[C@]12CC[C@@H]3c4cc(-c5cccc(O)c5)c(O)cc4CC[C@H]3[C@@H]1CC[C@@H]2O,–,–,–
10,25,–,–,C[S+]([O-])c1ccc2c(c1)CC[C@@H]1[C@@H]2CC[C@]2(C)[C@@H](O)CC[C@@H]12 (stereo partly drawn),–,–,–
6,55,4,9,C#C[C@]1(O)CC[C@H]2[C@@H]3CCc4cc(OC)c(-c5ccc(OC)cc5)cc4[C@H]3CC[C@@]21C,–,–,–
82,101,9,45,C[C@]12CC[C@@H]3c4cc(-c5ccccc5)c(O)cc4CC[C@H]3[C@@H]1CC[C@@H]2O,–,–,–
77,100,1,15,C[C@]12CC[C@@H]3c4cc(-c5ccc(F)c(F)c5)c(O)cc4CC[C@H]3[C@@H]1CCC2=O,–,–,–
71,101,2,8,C[C@]12CC[C@@H]3c4cc(-c5ccc(F)cc5)c(O)cc4CC[C@H]3[C@@H]1CCC2=O,–,–,–
–,100,53,77,C[C@]12CC[C@@H]3c4cc(-c5cccnc5)c(O)cc4CC[C@H]3[C@@H]1CC[C@@H]2O,–,–,–
–,90,–,–,C[C@]12CC[C@@H]3c4cc(-c5cccnc5)c(O)cc4CC[C@H]3[C@@H]1CCC2=O,–,–,–

"inhibition at 0.75 h, 0.3 µM [1] [%]","inhibition at 0.75 h, 3 µM [2] [%]","inhibition at 25 min, 0.3 µM [3] [%]","inhibition at 25 min, 3 µM [4] [%]",SMILES,IC50 [5] [nM],IC50 [6] [nM],Ratio IC50 [7]
48,81,–,–,COc1cccc(-c2cc3c(cc2O)CC[C@@H]2[C@@H]3CC[C@]3(C)C(=O)CC[C@@H]23)c1,–,–,–
92,100,2,47,C[C@]12CC[C@@H]3c4cc(-c5ccc(F)c(F)c5)c(O)cc4CC[C@H]3[C@@H]1CC[C@@H]2O,–,–,–
91,100,16,51,C[C@]12CC[C@@H]3c4cc(-c5cccc(Cl)c5)c(O)cc4CC[C@H]3[C@@H]1CC[C@@H]2O,–,–,–
48,87,9,36,C[C@]12CC[C@@H]3c4ccc(SCc5cccnc5)cc4CC[C@H]3[C@@H]1CCC2=O,–,–,–
16,57,–,–,C[S+]([O-])c1ccc2c(c1)CC[C@@H]1[C@@H]2CC[C@]2(C)C(=O)CC[C@@H]12 (stereo partly drawn),–,–,–
96,99,12,63,C[C@]12CC[C@@H]3c4cc(-c5ccc(Cl)cc5)c(O)cc4CC[C@H]3[C@@H]1CC[C@@H]2O,–,–,–
8,46,2,6,COc1ccc(-c2cc3c(cc2OC)CC[C@@H]2[C@@H]3CC[C@@]3(C)[C@H]2CC[C@]3(C)O)cc1,–,–,–
14,34,–,–,CSc1ccc2c(c1)CC[C@@H]1[C@@H]2CC[C@]2(C)C(=O)CC[C@@H]12,–,–,–
92,103,10,39,C[C@]12CC[C@@H]3c4cc(-c5cccc(O)c5)c(O)cc4CC[C@H]3[C@@H]1CCC2=O,–,–,–
88,101,12,48,C[C@]12CC[C@@H]3c4cc(-c5cccc(F)c5)c(O)cc4CC[C@H]3[C@@H]1CC[C@@H]2O,–,–,–
7,7,–,–,C[C@]12CC[C@@H]3c4ccc(S(C)(=O)=O)cc4CC[C@H]3[C@@H]1CCC2=O,–,–,–
–,101,30,75,O=c1cc(-c2ccccc2)oc2c1ccc1ccccc12 [ALPHA-NAPHTHOFLAVONE],2700,–,–
36,55,–,–,C[C@]12CC[C@@H]3c4cc(-c5cccc(N)c5)c(O)cc4CC[C@H]3[C@@H]1CCC2=O,–,–,–
5,26,–,–,CSc1ccc2c(c1)CC[C@@H]1[C@@H]2CC[C@]2(C)[C@@H](O)CC[C@@H]12,–,–,–
74,100,5,11,C[C@]12CC[C@@H]3c4cc(-c5cccc(Cl)c5)c(O)cc4CC[C@H]3[C@@H]1CCC2=O,–,–,–

SMILES,"inhibition at 0.75 h, 0.3 µM [1] [%]","inhibition at 0.75 h, 3 µM [2] [%]","inhibition at 25 min, 0.3 µM [3] [%]","inhibition at 25 min, 3 µM [4] [%]",IC50 [5] [nM],IC50 [6] [nM],Ratio IC50 [7]
C[C@]12CC[C@@H]3c4cc(-c5ccc(Cl)cc5)c(O)cc4CC[C@H]3[C@@H]1CCC2=O,79,101,9,5,–,–,–
C[C@]12CC[C@@H]3c4cc(-c5ccccc5)c(O)cc4CC[C@H]3[C@@H]1CCC2=O,69,101,5,16,–,–,–
C[C@]12CC[C@@H]3c4cc(-c5ccncc5)c(O)cc4CC[C@H]3[C@@H]1CC[C@@H]2O,–,102,5,14,3900,240,16
